Results reported in ChEMBL document CHEMBL1201862, “PubChem BioAssay data set” (2004).
Where “and” joins values, the source holds several entries; their conditions need not be identical. Identical values can stand only once.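 Values below derive from 48-hour exposures of cells grown in 96-well plates, with endpoints linearly interpolated between the two concentrations bracketing the appropriate inhibition level. At the GI50, growth is halved.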 Calls of active or inactive are those of the source. Rule as the data show it: active = GI50 up to about 1.1 µM and inactive = higher.

What was measured:
Assay in all cases: DTP human tumour cell line panel, 48 h
786-0 = tested on: 786-0
A498 = tested on: A498
A549 = tested on: A549
ACHN = tested on: ACHN
CAKI-1 = tested on: CAKI-1
CCRF-CEM = tested on: CCRF-CEM
COLO 205 = tested on: COLO 205
DLD-1 = tested on: DLD-1
DMS-114 = tested on: DMS-114
DMS-273 = tested on: DMS-273
EKVX = tested on: EKVX
HCC 2998 = tested on: HCC 2998
HCT-116 = tested on: HCT-116
HCT-15 = tested on: HCT-15
HL-60 = tested on: HL-60
HOP-18 = tested on: HOP-18
HOP-62 = tested on: HOP-62
HOP-92 = tested on: HOP-92
HT-29 = tested on: HT-29
IGROV-1 = tested on: IGROV-1
K562 = tested on: K562
KM12 = tested on: KM12
LOX IMVI = tested on: LOX IMVI
M14 = tested on: M14
M19-MEL = tested on: M19-MEL
MOLT-4 = tested on: MOLT-4
Malme-3M = tested on: Malme-3M
NCI-H226 = tested on: NCI-H226
NCI-H23 = tested on: NCI-H23
NCI-H460 = tested on: NCI-H460
OVCAR-3 = tested on: OVCAR-3
OVCAR-4 = tested on: OVCAR-4
OVCAR-5 = tested on: OVCAR-5
OVCAR-8 = tested on: OVCAR-8
RXF 393 = tested on: RXF 393
SF-268 = tested on: SF-268
SF-295 = tested on: SF-295
SF-539 = tested on: SF-539
SK-MEL-28 = tested on: SK-MEL-28
SK-MEL-2 = tested on: SK-MEL-2
SK-MEL-5 = tested on: SK-MEL-5
SK-OV-3 = tested on: SK-OV-3
SN12C = tested on: SN12C
SNB-19 = tested on: SNB-19
SNB-75 = tested on: SNB-75
SNB-78 = tested on: SNB-78
SW-620 = tested on: SW-620
TK-10 = tested on: TK-10
U-251 = tested on: U-251
UACC-257 = tested on: UACC-257
UACC-62 = tested on: UACC-62
UO-31 = tested on: UO-31
BT-549 = tested on: BT-549
DU-145 = tested on: DU-145
Hs-578T = tested on: Hs-578T
KM-20L2 = tested on: KM-20L2
MDA-MB-231 = tested on: MDA-MB-231
MDA-MB-435 = tested on: MDA-MB-435
PC-3 = tested on: PC-3
SR = tested on: SR
T47D = tested on: T47D
XF498 = tested on: XF498
MCF7 = tested on: MCF7
RPMI-8226 = tested on: RPMI-8226
LXFL 529 = tested on: LXFL 529
NCI-H522 = tested on: NCI-H522

CC(C)(C)c1ccc2c(c1)S(=O)(=O)Nc1ccc(Cl)cc1NS(=O)(=O)c1cc(C(C)(C)C)ccc1OCCOCCOCCO2
GI50 (786-0): 87.3 µM (inactive) | GI50 (A498): > 100 µM (inactive) | GI50 (A549): 25.1 µM (inactive) | GI50 (ACHN): 42.1 µM (inactive) | GI50 (CAKI-1): 98.2 µM (inactive) | GI50 (CCRF-CEM): > 100 µM (inactive) | GI50 (COLO 205): > 100 µM (inactive) | GI50 (DLD-1): 85.7 µM (inactive) | GI50 (DMS-114): 36.3 µM (inactive) | GI50 (DMS-273): 56.8 µM (inactive) | GI50 (EKVX): 79.6 µM (inactive) | GI50 (HCC 2998): > 100 µM (inactive) | GI50 (HCT-116): 35.9 µM (inactive) | GI50 (HCT-15): > 100 µM | GI50 (HL-60): > 100 µM (inactive) | GI50 (HOP-18): > 100 µM (inactive) | GI50 (HOP-62): 32.3 µM (inactive) | GI50 (HOP-92): 18.5 µM (inactive) | GI50 (HT-29): 99.3 µM (inactive) | GI50 (IGROV-1): 38 µM (inactive) | GI50 (K562): > 100 µM (inactive) | GI50 (KM12): 75 µM (inactive) | GI50 (LOX IMVI): > 100 µM (inactive) | GI50 (M14): 81.7 µM (inactive) | GI50 (M19-MEL): 62.4 µM (inactive) | GI50 (MOLT-4): > 100 µM (inactive) | GI50 (Malme-3M): 27.4 µM (inactive) | GI50 (NCI-H226): 57.9 µM (inactive) | GI50 (NCI-H23): 32.4 µM (inactive) | GI50 (NCI-H460): 26 µM (inactive) | GI50 (OVCAR-3): 50.6 µM (inactive) | GI50 (OVCAR-4): 5.69 µM (inactive) | GI50 (OVCAR-5): > 100 µM (inactive) | GI50 (OVCAR-8): 35 µM (inactive) | GI50 (RXF 393): 19.8 µM (inactive) | GI50 (SF-268): 31.1 µM (inactive) | GI50 (SF-295): 21.6 µM (inactive) | GI50 (SF-539): 23.5 µM (inactive) | GI50 (SK-MEL-28): > 100 µM (inactive) | GI50 (SK-MEL-2): 45.6 µM (inactive) | GI50 (SK-MEL-5): 28.1 µM (inactive) | GI50 (SK-OV-3): 33 µM (inactive) | GI50 (SN12C): 43.5 µM (inactive) | GI50 (SNB-19): 62.2 µM (inactive) | GI50 (SNB-75): 24 µM (inactive) | GI50 (SNB-78): 30.6 µM (inactive) | GI50 (SW-620): 98.9 µM (inactive) | GI50 (TK-10): 37.5 µM (inactive) | GI50 (U-251): 29.2 µM (inactive) | GI50 (UACC-257): 55.7 µM (inactive) | GI50 (UACC-62): 17.9 µM (inactive) | GI50 (UO-31): 53.5 µM (inactive)

N#Cc1cn(C2OC(CO)C(O)C2O)c2ncnc(N)c12 (configuration not stated)
GI50 (786-0): 0.0241 µM (active) | GI50 (A498): 57.4 nM (active) and 114 nM (active) | GI50 (BT-549): 0.0577 µM (active) | GI50 (CCRF-CEM): 16.1 nM (active) and 18 nM (active) | GI50 (COLO 205): 14.6 nM (active) and < 16.4 nM (active) | GI50 (DLD-1): 0.045 µM (active) | GI50 (DMS-273): 0.0409 µM (active) | GI50 (DU-145): 0.0393 µM (active) | GI50 (EKVX): 60.3 nM (active) and 94.8 nM (active) | GI50 (HL-60): < 10 nM (active) and < 13.8 nM (active) | GI50 (HOP-18): 0.109 µM (active) | GI50 (HOP-92): 46.2 nM (active) and 76.6 nM (active) | GI50 (Hs-578T): 0.0302 µM (active) | GI50 (IGROV-1): 47.1 nM (active) and 23.8 nM (active) | GI50 (KM-20L2): 0.0476 µM (active) | GI50 (KM12): 24.1 nM (active) and 44.4 nM (active) | GI50 (LOX IMVI): 14.7 nM (active) and 24.9 nM (active) | GI50 (MDA-MB-231): 0.0158 µM (active) | GI50 (MDA-MB-435): < 0.0169 µM (active) | GI50 (MOLT-4): 23.9 nM (active) and 25.3 nM (active) | GI50 (Malme-3M): 39.9 nM (active) and 47.5 nM (active) | GI50 (NCI-H226): 66.4 nM (active) and 66.2 nM (active) | GI50 (OVCAR-3): 25.4 nM (active) and 45 nM (active) | GI50 (OVCAR-5): 112 nM (active) and 81.7 nM (active) | GI50 (PC-3): 0.015 µM (active) | GI50 (RXF 393): 23.2 nM (active) and 21.7 nM (active) | GI50 (SF-539): 45.4 nM (active) and 76.4 nM (active) | GI50 (SK-MEL-2): 18.2 nM (active) and 29.6 nM (active) | GI50 (SK-OV-3): 26 nM (active) and 42.9 nM (active) | GI50 (SNB-78): 0.191 µM (active) | GI50 (SR): < 0.01 µM (active) | GI50 (T47D): 0.0199 µM (active) | GI50 (TK-10): 0.014 µM (active) | GI50 (UACC-257): 62.2 nM (active) and 81.8 nM (active) | GI50 (XF498): 0.00414 µM (active)

CC1=C(C)C(=O)O[C@@H]([C@](C)(O)[C@]2(O)CC[C@@]3(O)[C@@H]4C[C@H]5O[C@]56[C@@H](O)C=CC(=O)[C@]6(C)[C@H]4CC[C@]23C)C1
GI50 (A549): 4.01 µM (inactive) | GI50 (CAKI-1): 0.025 µM (active) | GI50 (CCRF-CEM): 0.0851 µM (active) | GI50 (HCC 2998): 1.71 µM (inactive) | GI50 (HCT-116): 0.182 µM (active) | GI50 (HCT-15): 0.137 µM | GI50 (HOP-18): 0.0454 µM (active) | GI50 (HOP-62): 1.11 µM (active) | GI50 (HOP-92): 0.0373 µM (active) | GI50 (HT-29): 0.174 µM (active) | GI50 (IGROV-1): 1.01 µM (active) | GI50 (LOX IMVI): 0.133 µM (active) | GI50 (MCF7): 0.186 µM (active) | GI50 (Malme-3M): 0.33 µM (active) | GI50 (NCI-H226): 11 µM (inactive) | GI50 (NCI-H460): 1.6 µM (inactive) | GI50 (RPMI-8226): 0.0959 µM (active) | GI50 (SF-295): 2.99 µM (inactive) | GI50 (SF-539): 0.774 µM (active) | GI50 (SK-MEL-2): 0.451 µM (active) | GI50 (SK-MEL-5): 0.414 µM (active) | GI50 (SK-OV-3): 6.4 µM (inactive) | GI50 (SN12C): 1.04 µM (active) | GI50 (SNB-19): 2.17 µM (inactive) | GI50 (SNB-75): 0.0468 µM (active) | GI50 (SNB-78): 0.499 µM (active) | GI50 (U-251): 1.88 µM (inactive) | GI50 (UACC-257): 0.308 µM (active) | GI50 (UO-31): 0.587 µM (active) | GI50 (XF498): 0.0912 µM (active)

Nc1nc(=O)n([C@@H]2CC[C@H](CO)O2)cc1F
GI50 (786-0): > 100 µM (inactive) | GI50 (A549): > 100 µM (inactive) | GI50 (ACHN): > 100 µM (inactive) | GI50 (CAKI-1): > 100 µM (inactive) | GI50 (CCRF-CEM): > 100 µM (inactive) | GI50 (COLO 205): > 100 µM (inactive) | GI50 (DLD-1): > 100 µM (inactive) | GI50 (DMS-114): > 100 µM (inactive) | GI50 (DMS-273): > 100 µM (inactive) | GI50 (EKVX): > 100 µM (inactive) | GI50 (HCC 2998): 42.8 µM (inactive) | GI50 (HCT-15): > 100 µM | GI50 (HL-60): > 100 µM (inactive) | GI50 (HOP-18): > 100 µM (inactive) | GI50 (HOP-62): > 100 µM (inactive) | GI50 (HOP-92): > 100 µM (inactive) | GI50 (HT-29): > 100 µM (inactive) | GI50 (K562): > 100 µM (inactive) | GI50 (KM-20L2): > 100 µM (inactive) | GI50 (KM12): > 100 µM (inactive) | GI50 (LOX IMVI): > 100 µM (inactive) | GI50 (LXFL 529): > 100 µM (inactive) | GI50 (M14): > 100 µM (inactive) | GI50 (MOLT-4): > 100 µM (inactive) | GI50 (Malme-3M): > 100 µM (inactive) | GI50 (NCI-H226): > 100 µM (inactive) | GI50 (NCI-H23): > 100 µM (inactive) | GI50 (NCI-H460): > 100 µM (inactive) | GI50 (NCI-H522): > 100 µM (inactive) | GI50 (OVCAR-3): > 100 µM (inactive) | GI50 (OVCAR-4): > 100 µM (inactive) | GI50 (OVCAR-5): > 100 µM (inactive) | GI50 (OVCAR-8): > 100 µM (inactive) | GI50 (RPMI-8226): > 100 µM (inactive) | GI50 (RXF 393): > 100 µM (inactive) | GI50 (SF-268): > 100 µM (inactive) | GI50 (SF-295): > 100 µM (inactive) | GI50 (SK-MEL-28): > 100 µM (inactive) | GI50 (SK-MEL-2): > 100 µM (inactive) | GI50 (SK-MEL-5): > 100 µM (inactive) | GI50 (SK-OV-3): > 100 µM (inactive) | GI50 (SN12C): > 100 µM (inactive) | GI50 (SNB-19): > 100 µM (inactive) | GI50 (SNB-75): > 100 µM (inactive) | GI50 (SNB-78): > 100 µM (inactive) | GI50 (SW-620): > 100 µM (inactive) | GI50 (TK-10): > 100 µM (inactive) | GI50 (U-251): > 100 µM (inactive) | GI50 (UACC-257): > 100 µM (inactive) | GI50 (UO-31): > 100 µM (inactive)
